# Results: patent US9957271B2, “Substituted bicyclic aza-heterocycles and analogues as sirtuin modulators” (GlaxoSmithKline, LLC, priority 2012, dated 2018)
# Experiments:
# SIRT1 [1] = target: T1, SIRT1 (Homo sapiens, UniProt Q96EB6); assay: Trp mass spectrometry assay of SIRT1 activity; assay type: biochemical; details: Trp assay; for Trp EC1.5 (μM): concentration giving 150% activation of SIRT1; for Emax: percent maximum fold activation, read-out: Trp % Fold Act
# T1 sequence (Q96EB6 1-747): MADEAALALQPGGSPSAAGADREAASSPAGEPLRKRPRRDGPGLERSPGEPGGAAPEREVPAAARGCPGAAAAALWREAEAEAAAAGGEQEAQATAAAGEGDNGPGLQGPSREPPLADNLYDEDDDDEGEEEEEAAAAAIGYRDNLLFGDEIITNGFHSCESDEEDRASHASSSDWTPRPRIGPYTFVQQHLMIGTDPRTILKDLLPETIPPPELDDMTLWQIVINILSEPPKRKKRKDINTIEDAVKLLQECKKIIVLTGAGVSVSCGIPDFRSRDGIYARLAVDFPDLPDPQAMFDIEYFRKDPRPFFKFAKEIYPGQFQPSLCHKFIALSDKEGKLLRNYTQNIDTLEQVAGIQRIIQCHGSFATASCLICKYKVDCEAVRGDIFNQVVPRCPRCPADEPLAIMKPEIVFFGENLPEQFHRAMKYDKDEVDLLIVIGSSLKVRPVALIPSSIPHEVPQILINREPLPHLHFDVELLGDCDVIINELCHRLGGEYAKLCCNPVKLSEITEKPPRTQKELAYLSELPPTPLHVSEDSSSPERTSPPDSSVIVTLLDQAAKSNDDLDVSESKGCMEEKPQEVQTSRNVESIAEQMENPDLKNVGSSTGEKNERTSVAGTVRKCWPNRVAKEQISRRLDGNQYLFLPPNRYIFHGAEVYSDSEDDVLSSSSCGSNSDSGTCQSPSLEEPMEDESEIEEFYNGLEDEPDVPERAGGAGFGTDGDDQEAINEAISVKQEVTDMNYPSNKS
# Description: Mass spectrometry based assays were used to identify modulators of SIRT1 activity. The TAMRA based assay utilized a peptide having 20 amino acid residues as follows: Ac-EE-K(biotin)-[…](Ac)NleSTEG-K(5TMR)-EE-NH2 (SEQ ID NO: 1), wherein K(Ac) is an acetylated lysine residue and Nle is a norleucine. The peptide was labeled with the fluorophore 5TMR (excitation 540 nm/emission 580 nm) at the C-terminus. The sequence of the peptide substrate was based on p53 with several modifications. In addition, the methionine residue naturally present in the sequence was replaced with the norleucine because the methionine may be susceptible to oxidation during synthesis and purification. The Trp based assay utilized a peptide having an amino acid residues as follows: Ac-R-H-K-K(Ac)-W-NH2 (SEQ ID NO: 2).
# The Trp mass spectrometry assay was conducted as follows. 0.5 μM peptide substrate and 120 μM βNAD^+ were incubated with 10 nM SIRT1 for 25 minutes at 25° C. in a reaction buffer (50 mM HEPES pH 7.5, […], 1 mM DTT, 0.05% BSA). The SIRT1 protein was obtained by cloning the SirT1 gene into a T7-promoter containing vector, which was then expressed in BL21(DE3) bacterial cells and purified as described in further detail below. Test compound was added at varying concentrations to this reaction mixture and the resulting reactions were monitored. After the 25 minute incubation with SIRT1, 10 μL of 10% formic acid was added to stop the reaction. The resulting reactions were sealed and frozen for later mass spec analysis. The relative SIRT1 activity was then determined by measuring the amount of O-acetyl-ADP-ribose (OAADPR) formed (or, alternatively, the amount of deacetylated Trp peptide generated) by the NAD-dependent sirtuin deacetylation reaction in the presence of varying concentrations of the test compound versus control reactions lacking the test compound. The degree to which the test agent activated deacetylation by SIRT1 was expressed as EC1.5 (i.e., the concentration of compound required to increase SIRT1 activity by 50% over the control lacking test compound), and Percent Maximum Activation (i.e., the maximum activity relative to control (100%) obtained for the test compound).
# A control for inhibition of sirtuin activity was conducted by adding 1 μL of 500 mM nicotinamide as a negative control at the start of the reaction (e.g., permits determination of maximum sirtuin inhibition). A control for activation of sirtuin activity was conducted using 10 nM of sirtuin protein, with 1 μL of DMSO in place of compound, to determine the amount of deacetylation of the substrate at a given time point within the linear range of the assay. This time point was the same as that used for test compounds and, within the linear range, the endpoint represents a change in velocity.
# For the above assay, SIRT1 protein was expressed and purified as follows. The SirT1 gene was cloned into a T7-promoter containing vector and transformed into BL21(DE3). The protein was expressed by induction with 1 mM IPTG as an N-terminal His-tag fusion protein at 18° C. overnight and harvested at 30,000×g. Cells were lysed with lysozyme in lysis buffer (50 mM Tris-HCl, 2 mM Tris[2-carboxyethyl]phosphine (TCEP), 10 μM ZnCl2, 200 mM NaCl) and further treated with sonication for […] for complete lysis. The protein was purified over a Ni-NTA column (Amersham) and fractions containing pure protein were pooled, concentrated and run over a sizing column (Sephadex S200 26/60 global). The peak containing soluble protein was collected and run on an Ion-exchange column (MonoQ). Gradient elution (200 mM-500 mM NaCl) yielded pure protein. This protein was concentrated and dialyzed against dialysis buffer (20 mM Tris-HCl, 2 mM TCEP) overnight. The protein was aliquoted and frozen at −80° C. until further use.
# SIRT1 [2] = target: T1, SIRT1; assay: TAMRA based mass spectrometry assay of SIRT1 activity; assay type: biochemical; details: TAMRA assay; for TAMRA EC1.5 (μM): concentration giving 150% activation of SIRT1; for Emax: percent maximum fold activation, read-out: TAMRA % Fold Act
# How it was run: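 Deacetylation of a biotinylated, TAMRA-tagged p53-based peptide (0.5 μM) by 10 nM His-tagged SIRT1 with 120 μM βNAD+, 25 °C for 25 min, pH 8 Tris-acetate buffer, across a compound concentration range. Quenched by formic acid and read by mass spec as product peptide or OAADPR; activity relative to DMSO reactions, nicotinamide defining maximal inhibition.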
SMILES,Trp EC1.5 (μM) (SIRT1 [1]),Emax (SIRT1 [1]),TAMRA EC1.5 (μM) (SIRT1 [2]),Emax (SIRT1 [2])
O=C(Nc1cnc2ccc(-c3ccccc3OC(F)(F)F)nn12)c1cnccn1 [Compound 314],B (EC1.5 1-25 μM),< 350%,–,–
O=C(Nc1ccccn1)c1cnc2ccc(N3CC[C@H](F)C3)nn12 [Compound 836],B (EC1.5 1-25 μM),≥ 350%,–,–
O=C(Nc1cccnc1)c1cnc2ccc(N3CC[C@H](F)C3)nn12 [Compound 837],B (EC1.5 1-25 μM),< 350%,–,–
O=C(Nc1ccc(F)cn1)c1cnc2ccc(N3CC[C@H](F)C3)nn12 [Compound 838],B (EC1.5 1-25 μM),< 350%,–,–
O=C(Nc1ccncc1F)c1cnc2ccc(N3CC[C@H](F)C3)nn12 [Compound 839],B (EC1.5 1-25 μM),< 350%,–,–
Cc1nc2ccc(N3CC[C@H](F)C3)nn2c1C(=O)Nc1ccccn1 [Compound 840],B (EC1.5 1-25 μM),≥ 350%,–,–
Cc1nc2ccc(N3CC[C@H](F)C3)nn2c1C(=O)Nc1cccnc1 [Compound 841],A (EC1.5<1 μM),≥ 350%,–,–
Cc1nc2ccc(N3CC[C@H](F)C3)nn2c1C(=O)Nc1ccc(F)cn1 [Compound 844],B (EC1.5 1-25 μM),< 350%,–,–
Cc1nc2ccc(N3CC[C@H](F)C3)nn2c1C(=O)Nc1cnccn1 [Compound 845],B (EC1.5 1-25 μM),< 350%,–,–
Cc1nc2ccc(N3CC[C@H](F)C3)nn2c1C(=O)Nc1ccncc1F [Compound 846],A (EC1.5<1 μM),< 350%,–,–
O=C(Nc1ccncn1)c1cnc2ccc(N3CC[C@H](F)C3)nn12 [Compound 851],B (EC1.5 1-25 μM),< 350%,–,–
Cc1nc2ccc(N3CC[C@H](F)C3)nn2c1C(=O)Nc1ncccn1 [Compound 852],B (EC1.5 1-25 μM),≥ 350%,–,–
O=C(Nc1cnccn1)c1cnc2ccc(N3CC[C@H](F)C3)nn12 [Compound 853],C (EC1.5>25 μM),< 350%,–,–
O=C(Nc1ncccn1)c1cnc2ccc(N3CC[C@H](F)C3)nn12 [Compound 854],B (EC1.5 1-25 μM),< 350%,–,–
Cc1nc2ccc(N3CC[C@H](F)C3)nn2c1C(=O)Nc1ccncn1 [Compound 855],B (EC1.5 1-25 μM),≥ 350%,–,–
O=C(Nc1cccnn1)c1cnc2ccc(N3CC[C@H](F)C3)nn12 [Compound 856],B (EC1.5 1-25 μM),< 350%,–,–
Cc1nc2ccc(N3CC[C@H](F)C3)nn2c1C(=O)Nc1cccnn1 [Compound 857],A (EC1.5<1 μM),≥ 350%,–,–
O=C(Nc1cccnc1)c1cnc2ccc(-c3cccc(OC[C@H](O)CO)c3)nn12 [Compound 858],B (EC1.5 1-25 μM),< 350%,–,–

# Results, then the molecule that gave them:
Trp EC1.5 (μM) (SIRT1 [1]),Emax (SIRT1 [1]),TAMRA EC1.5 (μM) (SIRT1 [2]),Emax (SIRT1 [2]),SMILES
–,–,A (EC1.5<1 μM),≥ 350%,Cc1ccnc(NC(=O)c2c(C)nc3ccc(-c4ccccc4OC[C@H](O)CO)nn23)c1 [Compound 817]
–,–,A (EC1.5<1 μM),≥ 350%,Cc1nc2ccc(-c3ccccc3OC[C@H](O)CO)nn2c1C(=O)Nc1ccc(F)cn1 [Compound 819]
–,–,A (EC1.5<1 μM),< 350%,Cc1nc2ccc(-c3cccc(OC[C@H](O)CO)c3)nn2c1C(=O)Nc1ccncc1F [Compound 822]
A (EC1.5<1 μM),≥ 350%,–,–,Cc1cc(C)nc(NC(=O)c2c(C)nc3c(OC[C@H](O)CO)cc(-c4ccccc4C(F)(F)F)nn23)c1 [Compound 834]
A (EC1.5<1 μM),≥ 350%,–,–,Cc1nc2c(OC[C@H](O)CO)cc(-c3ccccc3C(F)(F)F)nn2c1C(=O)Nc1ccc(F)cn1 [Compound 835]
A (EC1.5<1 μM),≥ 350%,–,–,Cc1nc2c(OC[C@H](O)CO)cc(-c3ccccc3C(F)(F)F)nn2c1C(=O)Nc1ccccn1 [Compound 842]
A (EC1.5<1 μM),≥ 350%,–,–,Cc1nc2c(OC[C@H](O)CO)cc(-c3ccccc3C(F)(F)F)nn2c1C(=O)Nc1ccncc1F [Compound 843]
A (EC1.5<1 μM),≥ 350%,–,–,O=C(Nc1ccccn1)c1cnc2ccc(-c3cccc(OC[C@H](O)CO)c3)nn12 [Compound 847]
A (EC1.5<1 μM),≥ 350%,–,–,Cc1cccc(NC(=O)c2cnc3ccc(-c4cccc(OC[C@H](O)CO)c4)nn23)n1 [Compound 848]
A (EC1.5<1 μM),≥ 350%,–,–,Cc1cccc(NC(=O)c2c(C)nc3c(OC[C@H](O)CO)cc(-c4ccccc4C(F)(F)F)nn23)n1 [Compound 849]
A (EC1.5<1 μM),≥ 350%,–,–,Cc1cc(NC(=O)c2c(C)nc3c(OC[C@H](O)CO)cc(-c4ccccc4C(F)(F)F)nn23)nc(C)n1 [Compound 850]
A (EC1.5<1 μM),≥ 350%,–,–,Cc1ccnc(NC(=O)c2c(C)nc3c(OC[C@H](O)CO)cc(-c4ccccc4C(F)(F)F)nn23)c1 [Compound 859]
A (EC1.5<1 μM),≥ 350%,–,–,Cc1cc(NC(=O)c2c(C)nc3c(OC[C@H](O)CO)cc(-c4ccccc4C(F)(F)F)nn23)cc(C)n1 [Compound 860]
A (EC1.5<1 μM),≥ 350%,–,–,Cc1cnc(NC(=O)c2c(C)nc3c(OC[C@H](O)CO)cc(-c4ccccc4C(F)(F)F)nn23)s1 [Compound 861]
A (EC1.5<1 μM),≥ 350%,–,–,Cc1nc2c(OC[C@H](O)CO)cc(-c3ccccc3C(F)(F)F)nn2c1C(=O)Nc1cccnc1 [Compound 862]
A (EC1.5<1 μM),≥ 350%,–,–,Cc1nc2c(OC[C@H](O)CO)cc(-c3ccccc3C(F)(F)F)nn2c1C(=O)Nc1ccncc1 [Compound 863]
A (EC1.5<1 μM),≥ 350%,–,–,Cc1cncc(NC(=O)c2c(C)nc3c(OC[C@H](O)CO)cc(-c4ccccc4C(F)(F)F)nn23)c1 [Compound 864]
A (EC1.5<1 μM),≥ 350%,–,–,Cc1ccc(NC(=O)c2c(C)nc3c(OC[C@H](O)CO)cc(-c4ccccc4C(F)(F)F)nn23)cn1 [Compound 865]
